Biological target: T1, VEGFR-3 (vascular endothelial growth factor receptor-3, Flt-4) (Homo sapiens, UniProt P35916)
T1 construct: gene FLT4
Experiment: cell-free kinase (autophosphorylation) assay; also HUVEC cellular VEGFR-3 phosphorylation, IC50 […]
Assay type: biochemical

T1 sequence (P35916 25-1363): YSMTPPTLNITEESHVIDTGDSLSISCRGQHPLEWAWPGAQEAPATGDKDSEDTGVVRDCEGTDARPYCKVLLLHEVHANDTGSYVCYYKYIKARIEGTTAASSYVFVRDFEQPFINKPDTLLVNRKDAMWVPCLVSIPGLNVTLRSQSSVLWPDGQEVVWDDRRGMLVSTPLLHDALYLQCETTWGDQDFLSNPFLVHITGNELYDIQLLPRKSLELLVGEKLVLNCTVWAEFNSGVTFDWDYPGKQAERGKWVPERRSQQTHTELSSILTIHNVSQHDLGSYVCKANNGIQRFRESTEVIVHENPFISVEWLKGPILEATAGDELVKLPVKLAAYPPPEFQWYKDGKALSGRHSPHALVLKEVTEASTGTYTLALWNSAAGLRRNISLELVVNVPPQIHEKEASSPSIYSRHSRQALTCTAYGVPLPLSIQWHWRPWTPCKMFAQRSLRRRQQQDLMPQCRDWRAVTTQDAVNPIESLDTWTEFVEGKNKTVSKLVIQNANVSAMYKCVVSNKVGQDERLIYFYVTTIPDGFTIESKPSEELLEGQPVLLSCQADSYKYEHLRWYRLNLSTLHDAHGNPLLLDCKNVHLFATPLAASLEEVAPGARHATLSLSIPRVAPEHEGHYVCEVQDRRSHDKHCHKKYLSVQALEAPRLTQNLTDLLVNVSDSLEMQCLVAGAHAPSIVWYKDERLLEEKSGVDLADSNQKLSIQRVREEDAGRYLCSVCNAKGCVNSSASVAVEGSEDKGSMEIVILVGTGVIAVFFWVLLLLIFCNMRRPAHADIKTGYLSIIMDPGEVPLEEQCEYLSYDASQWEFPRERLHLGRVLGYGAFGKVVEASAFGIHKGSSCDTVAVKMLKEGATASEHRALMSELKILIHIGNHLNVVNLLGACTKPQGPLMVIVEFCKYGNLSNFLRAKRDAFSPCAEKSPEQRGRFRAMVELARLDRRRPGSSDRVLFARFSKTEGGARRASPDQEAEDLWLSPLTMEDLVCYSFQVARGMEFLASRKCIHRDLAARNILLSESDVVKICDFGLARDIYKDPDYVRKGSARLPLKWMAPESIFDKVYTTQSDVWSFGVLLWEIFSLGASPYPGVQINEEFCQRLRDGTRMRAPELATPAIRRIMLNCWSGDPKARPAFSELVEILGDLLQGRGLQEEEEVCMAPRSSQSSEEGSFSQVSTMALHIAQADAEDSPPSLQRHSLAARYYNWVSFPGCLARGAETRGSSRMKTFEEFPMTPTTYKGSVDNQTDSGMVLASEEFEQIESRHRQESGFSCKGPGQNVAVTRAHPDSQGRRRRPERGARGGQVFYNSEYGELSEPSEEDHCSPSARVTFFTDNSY

COc1cc2c(Oc3ccc(Nc4ccc(C(C)(C)C)cc4)cc3)ccnc2cc1OCCNCCO [Ki23057]
IC50: 4.3 nM
